System: maternal sera (antibodies)
Experiment: ELISA peptide-binding of maternal sera (Example 6)
Set-up: species or system human
Settings: for Number of Non-Transmitters which bound to peptide / Percent of Non-Transmitters which bound to peptide: N = 12; for Number of Transmitters which bound to peptide / Percent of Transmitters which bound to peptide: N = 4
Text: A total of 86 maternal sera samples obtained from patients of the Hospital of the University of Pennsylvania during the third trimester of pregnancy were used in this study 58 (67%) were non-transmitters and 28 (33%) were transmitters. This is approximately consistent with the national average (i.e. a rate of transmission between 25-30%). Transmission status was based upon serological or molecular diagnosis of children (at an age of greater than 15 months) born to these mothers. Because of the constraints on the volume of serum available for many of these samples, not all sera were analyzed with all the peptides. However, each sera sample was run with at least 40 peptides.
These peptides are of an average length of 16 amino acids and covered the entire external as well as the transmembrane glycoprotein of HIV-1. Peptide binding was analyzed by ELISA essentially as described in Example 3.
The results of one study, using some of the peptides identified above among others, is provided in Table 12, which illustrates the number and percent of non-transmitters which bound to the tested peptide. The percentage designation refers to the percentage of sera samples which bound to a particular peptide. A value of greater than 0% means that at least one of the samples bound to the particular peptides.

| Substance | Number of Non-Transmitters which bound to peptide | Number of Transmitters which bound to peptide | Percent of Transmitters which bound to peptide [%] | Percent of Non-Transmitters which bound to peptide [%] | Correlation of peptide binding with non-transmitters (in words) (Example 6) | Fold binding, non-transmitters vs transmitters (Example 6) | Percent of Non-Transmitters which bound to peptide (listed as AID-PND) |
| --- | --- | --- | --- | --- | --- | --- | --- |
| VVQREKRAVGIG [Peptide 510] | 4 | 0 | 0 |  |  |  |  |
| WSK-1: gp120 peptide, amino acids 378-394, SEQ ID NO:115 (GGEFFYCNSTQLFNSTW) | 0 | 0 | 0 | 0 |  |  |  |
| YNKRKRIHIQRGPGRAFYTTKNII [AIDS-PND] | 7 | 1 | 25 | 58.3 | selectively correlate with non-transmitters | at least two fold greater | greater than 50% |
| p41-20: gp41 peptide, amino acids 644-663, HIV strain IIIB, SEQ ID NO: 154 (SLIEESQNQQEKNEQELLEL) | 2 | 0 | 0 | 16.7 |  |  |  |
